{"source": "patent US8450313B2", "about": "“2,3-diaryl- or heteroaryl-substituted 1,1,1-trifluoro-2-hydroxypropyl compounds” (Hoffmann-La Roche Inc., priority 2009, dated 2013)", "molecular_target": "T1, full length human recombinant glucocorticoid receptor (Homo sapiens, UniProt P04150)", "T1 construct": "It contains some partially purified full length human recombinant glucocorticoid receptor; purchased Panvera/Invitrogen PV4302", "T1 sequence (P04150 1-777)": "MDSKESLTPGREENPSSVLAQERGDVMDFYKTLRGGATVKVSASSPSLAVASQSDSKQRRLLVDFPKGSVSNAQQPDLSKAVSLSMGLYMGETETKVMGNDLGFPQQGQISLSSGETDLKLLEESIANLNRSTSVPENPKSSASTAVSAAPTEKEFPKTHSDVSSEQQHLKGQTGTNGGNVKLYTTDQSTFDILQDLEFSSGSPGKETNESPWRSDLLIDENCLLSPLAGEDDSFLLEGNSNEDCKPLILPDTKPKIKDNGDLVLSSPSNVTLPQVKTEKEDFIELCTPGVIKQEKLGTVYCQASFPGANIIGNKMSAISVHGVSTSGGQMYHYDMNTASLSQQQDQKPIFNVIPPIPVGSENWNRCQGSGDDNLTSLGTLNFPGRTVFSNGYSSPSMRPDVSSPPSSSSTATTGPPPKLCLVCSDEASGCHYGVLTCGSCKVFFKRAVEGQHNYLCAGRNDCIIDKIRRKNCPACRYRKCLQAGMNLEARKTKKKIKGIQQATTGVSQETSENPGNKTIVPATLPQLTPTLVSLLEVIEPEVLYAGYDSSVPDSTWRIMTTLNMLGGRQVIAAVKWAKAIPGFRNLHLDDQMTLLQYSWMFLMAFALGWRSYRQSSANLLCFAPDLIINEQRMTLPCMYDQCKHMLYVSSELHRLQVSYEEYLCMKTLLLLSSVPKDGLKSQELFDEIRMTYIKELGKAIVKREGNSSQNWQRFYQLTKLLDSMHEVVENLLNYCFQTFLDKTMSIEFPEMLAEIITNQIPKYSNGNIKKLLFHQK", "assay": "Glucocorticoid Receptor Binding Assay (Glucocorticoid Receptor Competitor Assay far red kit, fluorescence polarization)", "conditions": "competition with fluorescent GR ligand Fluormone GS Far Red, 3 hours at 22° C., pH 7.4; Ki calculated from IC50 by Cheng-Prusoff", "how_it_was_run": "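Fluorescence polarization competition with partially purified full-length human recombinant GR, stabilizing peptide and Fluormone GS Far Red tracer in screening buffer pH 7.4; 3 hours at 22° C in the dark, read at 610–660 nm. IC50 from sigmoidal fit; Ki by Cheng-Prusoff.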", "data": [{"smiles": "COC(=O)c1cnc(Oc2ccc([C@@H](C)[C@@](O)(c3ccc4oc(=O)n(C)c4c3)C(F)(F)F)c(Cl)c2)nc1", "note": "(relative stereo) [Example 202, 2-{3-Chloro-4-[3,3,3-trifluoro-2-hydroxy-1-methyl-2-(3-methyl-2-oxo-2,3-dihydro-benzooxazol-5-yl)-propyl]-phenoxy}-pyrimidine-5-carboxylic acid methyl ester]", "values": [{"measurement": "Ki", "value": 1.8, "unit": "nM"}]}, {"smiles": "COC(=O)c1ccc(-c2ccc([C@@H](C)[C@@](O)(c3ccc4oc(=O)n(C)c4c3)C(F)(F)F)c(Cl)c2)cc1F", "note": "(relative stereo) [Example 117, 3′-Chloro-3-fluoro-4′-[3,3,3-trifluoro-2-hydroxy-1-methyl-2-(3-methyl-2-oxo-2,3-dihydro-benzooxazol-5-yl)-propyl]-biphenyl-4-carboxylic acid methyl ester]", "values": [{"measurement": "Ki", "value": 2.2, "unit": "nM"}]}, {"smiles": "C[C@@H](c1ccc(-c2ccc(C(=O)O)cc2)cc1Cl)[C@](O)(c1ccc2c(c1)N(C)C(=O)CO2)C(F)(F)F", "note": "(stereo in doubt) [Example 22, 3′-Chloro-4′-[3,3,3-trifluoro-2-hydroxy-1-methyl-2-(4-methyl-3-oxo-3,4-dihydro-2H-benzo[1,4]oxazin-6-yl)-propyl]-biphenyl-4-carboxylic acid]", "values": [{"measurement": "Ki", "value": 2.9, "unit": "nM"}]}, {"smiles": "CCOC(=O)C1CCN(c2ccc([C@H](C)[C@](O)(c3ccc4c(c3)N(C)C(=O)CO4)C(F)(F)F)c(Cl)c2)CC1", "note": "(stereo in doubt) [Example 42, 1-{3-Chloro-4-[3,3,3-trifluoro-2-hydroxy-1-methyl-2-(4-methyl-3-oxo-3,4-dihydro-2H-benzo[1,4]oxazin-6-yl)-propyl]-phenyl}-piperidine-4-carboxylic acid ethyl ester]", "values": [{"measurement": "Ki", "value": 4, "unit": "nM"}]}, {"smiles": "C[C@H](c1ccc(-c2ccc(F)c(C(=O)O)c2)cc1Cl)[C@@](O)(c1cccc(C#N)c1)C(F)(F)F", "note": "(stereo in doubt) [Example 154, 3′-Chloro-4′-[2-(3-cyano-phenyl)-3,3,3-trifluoro-2-hydroxy-1-methyl-propyl]-4-fluoro-biphenyl-3-carboxylic acid]", "values": [{"measurement": "Ki", "value": 33.7, "unit": "nM"}]}, {"smiles": "C[C@@H](c1ccc(Oc2ccc(CC(=O)O)cc2)cc1Cl)[C@](O)(c1ccc2c(c1)n(C)c(=O)n2C)C(F)(F)F", "note": "(stereo in doubt) [Example 89, (4-{3-Chloro-4-[2-(1,3-dimethyl-2-oxo-2,3-dihydro-1H-benzoimidazol-5-yl)-3,3,3-trifluoro-2-hydroxy-1-methyl-propyl]-phenoxy}-phenyl)-acetic acid]", "values": [{"measurement": "Ki", "value": 1.1, "unit": "nM"}]}, {"smiles": "C[C@@H](c1ccc(Oc2ccc(C(=O)O)c(C(F)(F)F)n2)cc1Cl)[C@](O)(c1ccc2c(c1)n(C)c(=O)n2C)C(F)(F)F", "note": "(stereo in doubt) [Example 115, 6-{3-Chloro-4-[2-(1,3-dimethyl-2-oxo-2,3-dihydro-1H-benzoimidazol-5-yl)-3,3,3-trifluoro-2-hydroxy-1-methyl-propyl]-phenoxy}-2-trifluoromethyl-nicotinic acid]", "values": [{"measurement": "Ki", "value": 1.1, "unit": "nM"}]}, {"smiles": "COC(=O)c1ccc(Oc2ccc([C@@H](C)[C@@](O)(c3ccc4oc(=O)n(C)c4c3)C(F)(F)F)c(Cl)c2)cc1F", "note": "(relative stereo) [Example 176, 4-{3-Chloro-4-[3,3,3-trifluoro-2-hydroxy-1-methyl-2-(3-methyl-2-oxo-2,3-dihydro-benzooxazol-5-yl)-propyl]-phenoxy}-2-fluoro-benzoic acid methyl ester]", "values": [{"measurement": "Ki", "value": 1.7, "unit": "nM"}]}, {"smiles": "COC(=O)c1cnc(Oc2ccc([C@@H](C)[C@@](O)(c3ccc4c(c3)N(C)C(=O)CO4)C(F)(F)F)c(Cl)c2)cn1", "note": "(racemic) [Example 227, 5-{3-Chloro-4-[3,3,3-trifluoro-2-hydroxy-1-methyl-2-(4-methyl-3-oxo-3,4-dihydro-2H-benzo[1,4]oxazin-6-yl)-propyl]-phenoxy}-pyrazine-2-carboxylic acid methyl ester]", "values": [{"measurement": "Ki", "value": 3, "unit": "nM"}]}, {"smiles": "C[C@H](c1ccc(-c2ccc(C(=O)O)c(F)c2)cc1Cl)[C@@](O)(c1ccc2c(c1)OCC(=O)N2C)C(F)(F)F", "note": "(stereo in doubt) [Example 164, 3′-Chloro-3-fluoro-4′-[3,3,3-trifluoro-2-hydroxy-1-methyl-2-(4-methyl-3-oxo-3,4-dihydro-2H-benzo[1,4]oxazin-7-yl)-propyl]-biphenyl-4-carboxylic acid]", "values": [{"measurement": "Ki", "value": 7.5, "unit": "nM"}]}, {"smiles": "COc1ccc(Cl)c([C@@H](C)[C@@](O)(c2ccc3oc(=O)n(C)c3c2)C(F)(F)F)c1", "note": "(stereo in doubt) [Example 192, 5-[2-(2-Chloro-5-methoxy-phenyl)-1-hydroxy-1-trifluoromethyl-propyl]-3-methyl-3H-benzooxazol-2-one]", "values": [{"measurement": "Ki", "value": 0.8, "unit": "nM"}]}, {"smiles": "C[C@H](c1ccc(Oc2cc(Cl)c(C(=O)O)cn2)cc1Cl)[C@@](O)(c1ccc2c(c1)n(C)c(=O)n2C)C(F)(F)F", "note": "(stereo in doubt) [Example 109, 4-Chloro-6-{3-chloro-4-[2-(1,3-dimethyl-2-oxo-2,3-dihydro-1H-benzoimidazol-5-yl)-3,3,3-trifluoro-2-hydroxy-1-methyl-propyl]-phenoxy}-nicotinic acid]", "values": [{"measurement": "Ki", "value": 1.1, "unit": "nM"}]}, {"smiles": "C[C@@H](c1ccc(-c2ccc(C(=O)O)cc2F)cc1Cl)[C@](O)(c1ccc2c(c1)N(C)C(=O)CO2)C(F)(F)F", "note": "(stereo in doubt) [Example 34, 3′-Chloro-2-fluoro-4′-[3,3,3-trifluoro-2-hydroxy-1-methyl-2-(4-methyl-3-oxo-3,4-dihydro-2H-benzo[1,4]oxazin-6-yl)-propyl]-biphenyl-4-carboxylic acid]", "values": [{"measurement": "Ki", "value": 7.8, "unit": "nM"}]}, {"smiles": "C[C@H](c1ccc(-c2ccc(C(=O)O)c(F)c2)cc1Cl)[C@@](O)(c1ccc2oc(=O)n(C)c2c1)C(F)(F)F", "note": "[Example 120, 3′-Chloro-3-fluoro-4′-[(1R,2R)-3,3,3-trifluoro-2-hydroxy-1-methyl-2-(3-methyl-2-oxo-2,3-dihydro-benzooxazol-5-yl)-propyl]-biphenyl-4-carboxylic acid]", "values": [{"measurement": "Ki", "value": 46, "unit": "nM"}]}, {"smiles": "CC(c1ccc(-c2ccc(OCC(=O)O)cc2)cc1Cl)C(O)(c1ccc2c(c1)n(C)c(=O)n2C)C(F)(F)F", "note": "(stereo not drawn) [Example 75, {3′-Chloro-4′-[2-(1,3-dimethyl-2-oxo-2,3-dihydro-1H-benzoimidazol-5-yl)-3,3,3-trifluoro-2-hydroxy-1-methyl-propyl]-biphenyl-4-yloxy}-acetic acid]", "values": [{"measurement": "Ki", "value": 1.9, "unit": "nM"}]}, {"smiles": "C[C@@H](c1cc(Oc2ccc(Cl)c(C(=O)O)c2)ccc1Cl)[C@](O)(c1ccc2c(c1)N(C)C(=O)CO2)C(F)(F)F", "note": "(relative stereo) [Example 15, 2-Chloro-5-{4-chloro-3-[3,3,3-trifluoro-2-hydroxy-1-methyl-2-(4-methyl-3-oxo-3,4-dihydro-2H-benzo[1,4]oxazin-6-yl)-propyl]-phenoxy}-benzoic acid]", "values": [{"measurement": "Ki", "value": 3.7, "unit": "nM"}]}, {"smiles": "C[C@H](c1ccc(-c2cccc(C(=O)O)c2)cc1Cl)[C@@](O)(c1ccc2c(c1)oc(=O)n2C)C(F)(F)F", "note": "(stereo in doubt) [Example 179, 3′-Chloro-4′-[3,3,3-trifluoro-2-hydroxy-1-methyl-2-(3-methyl-2-oxo-2,3-dihydro-benzooxazol-6-yl)-propyl]-biphenyl-3-carboxylic acid]", "values": [{"measurement": "Ki", "value": 13.3, "unit": "nM"}]}, {"smiles": "COC(=O)c1cnc(Oc2ccc([C@@H](C)[C@@](O)(c3ccc4c(c3)N(C)C(=O)CO4)C(F)(F)F)c(Cl)c2)nc1", "note": "(racemic) [Example 226, 2-{3-Chloro-4-[3,3,3-trifluoro-2-hydroxy-1-methyl-2-(4-methyl-3-oxo-3,4-dihydro-2H-benzo[1,4]oxazin-6-yl)-propyl]-phenoxy}-pyrimidine-5-carboxylic acid methyl ester]", "values": [{"measurement": "Ki", "value": 5.9, "unit": "nM"}]}, {"smiles": "C[C@@H](c1cc(Oc2cccc(C(=O)O)c2)ccc1Cl)[C@](O)(c1ccc2c(c1)N(C)C(=O)CO2)C(F)(F)F", "note": "(stereo in doubt) [Example 6, 3-{4-Chloro-3-[3,3,3-trifluoro-2-hydroxy-1-methyl-2-(4-methyl-3-oxo-3,4-dihydro-2H-benzo[1,4]oxazin-6-yl)-propyl]-phenoxy}-benzoic acid]", "values": [{"measurement": "Ki", "value": 4.8, "unit": "nM"}]}, {"smiles": "CCN1C(=O)COc2ccc([C@](O)([C@H](C)c3ccc(-c4ccc(C(=O)O)c(Cl)c4)cc3Cl)C(F)(F)F)cc21", "note": "(racemic) [Example 64, 3,3′-Dichloro-4′-[2-(4-ethyl-3-oxo-3,4-dihydro-2H-benzo[1,4]oxazin-6-yl)-3,3,3-trifluoro-2-hydroxy-1-methyl-propyl]-biphenyl-4-carboxylic acid]", "values": [{"measurement": "Ki", "value": 97.9, "unit": "nM"}]}, {"smiles": "C[C@H](c1ccc(Oc2ccc(C(F)(F)F)c(C(=O)O)n2)cc1Cl)[C@@](O)(c1ccc2c(c1)n(C)c(=O)n2C)C(F)(F)F", "note": "(stereo in doubt) [Example 112, 6-{3-Chloro-4-[2-(1,3-dimethyl-2-oxo-2,3-dihydro-1H-benzoimidazol-5-yl)-3,3,3-trifluoro-2-hydroxy-1-methyl-propyl]-phenoxy}-3-trifluoromethyl-pyridine-2-carboxylic acid]", "values": [{"measurement": "Ki", "value": 26.4, "unit": "nM"}]}]}
